In this assay the test system is Kwl:A-1 brown guinea pigs. Description: Pigmentation inhibitory effect: UVB-induced pigmentation in brown guinea pigs, L value (lightness) by color-difference meter. To be noted: 10 ml/kg; for Final day of the test L value: L value (lightness) of the irradiated site on final day (14 days), oral, twice a day, UVB on day 0, 2nd and 4th days; for ΔL value: L value on the observation day minus L value before irradiation, final day (14 days), oral twice a day, larger ΔL values show higher effect. It is filed as in vivo, guinea pig. The source says: Ultraviolet ray (UVB) irradiation time was examined using two female 6-week-old Kwl:A-1 brown guinea pigs (SPF). That is, one of the guinea pigs was fixed on the abdominal position, and three 2 cm×2 cm square ultraviolet ray irradiating sites were arranged in bilateral symmetry with the dorsal midline between, thus six sites in total. By shading the body except for the ultraviolet ray irradiating sites, an ultraviolet ray (UVB) was irradiated from a distance of 40 cm using five SE lamps (wavelength 250 to 350 nm, F[…]-E, manufactured by TOSHIBA). […] Examination was made by using five female 7-week-old Kwl:A-1 brown guinea pigs (SPF) in one group. That is, each of the guinea pigs was fixed on the abdominal position using a fixation plate on the respective ultraviolet ray irradiating days (on the day of the commencement of sample administration and on the 2nd and 4th days thereafter). One 2 cm×2 cm square arranged on the left or right side with the guinea pig dorsal midline between was used as the ultraviolet ray irradiating site, and the body was shaded except for the ultraviolet ray irradiating site. Two guinea pigs in one group were irradiated with an ultraviolet ray (LTVB) for 11 minutes and 30 seconds, and three guinea pigs in one group, from a distance of 40 cm using five SE lamps (wavelength 250 to 350 nm, F[…]·E, manufactured by TOSHIBA). During the testing period (14 days), each test sample was orally administered twice a day. Each sample solution was administered at a dose of 10 ml/kg. In this case, the administration was carried out after the ultraviolet ray irradiation on each ultraviolet ray irradiation day, or after the judgment on each pigmentation judging day. Before the irradiation on the day of the commencement of test sample administration and on the final day of the test, a ΔL value (L value on the observation day-L value before irradiation) was calculated by measuring L value (lightness) of the irradiated site using a color-difference meter (CR-300, manufactured by MINOLTA CAMERA).

As to `O=C1O[C@H]([C@@H](O)CO)C(O)=C1O` [Sample (4), ascorbic acid], the “Final day of the test L value” was 57.35 ± 1.56 and the ΔL value was −4.76 ± 1.62.
Regarding `N[C@@H](CS)C(=O)O` [Sample (3), L-cysteine], the “Final day of the test L value” worked out at 59.52 ± 3.10 and the ΔL value is −3.32 ± 1.70.
On the same counts, the results for `NC[C@H]1CC[C@H](C(=O)O)CC1` [Sample (2), tranexamic acid] are 58.30 ± 1.20 and −3.76 ± 1.78.

For the origin of these results see patent publication US20060142382A1, “Skin lightening composition” (priority 2002, published 2006).
